Laboratory results published in PubChem BioAssay AID192 (DTP/NCI, 2004).
Where “and” joins values, the source holds several entries; their conditions need not be identical. Identical values can stand only once. Inconclusive results and toxic doses are left out.

System: BDF1 mice, B16 melanoma ip, median survival T/C
Assay: NCI In Vivo Anticancer Drug Screen. Data for tumor model B16 Melanoma (intraperitoneal) in B6D2F1 (BDF1) mice
Settings: endpoint: median survival time, higher = longer survival
In short: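 Compounds were tested in mice carrying transplantable tumors. Survival or tumor size was recorded, and each value is the treated-group measurement (T) divided by that of the vehicle-treated control group (C).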

[1] = dose: 25.0 mg/kg/injection, schedule: Q01DX009 (ip), vehicle: Klucel (hydroxypropylcellulose) (HPC)
[2] = dose: 50.0 mg/kg/injection, schedule: Q01DX009 (ip), vehicle: Klucel (hydroxypropylcellulose) (HPC)
[3] = dose: 12.5 mg/kg/injection, schedule: Q01DX009 (ip), vehicle: saline with Tween-80
[4] = dose: 100.0 mg/kg/injection, schedule: Q01DX009 (ip), vehicle: Klucel (hydroxypropylcellulose) (HPC)
[5] = dose: 100.0 mg/kg/injection, schedule: Q01DX009 (ip), vehicle: saline with Tween-80
[6] = dose: 200.0 mg/kg/injection, schedule: Q01DX009 (ip), vehicle: saline with Tween-80
[7] = dose: 6.25 mg/kg/injection, schedule: Q01DX009 (ip), vehicle: Klucel (hydroxypropylcellulose) (HPC)
[8] = dose: 12.5 mg/kg/injection, schedule: Q01DX009 (ip), vehicle: Klucel (hydroxypropylcellulose) (HPC)
[9] = dose: 3.12 mg/kg/injection, schedule: Q01DX009 (ip), vehicle: Klucel (hydroxypropylcellulose) (HPC)
[10] = dose: 400.0 mg/kg/injection, schedule: Q01DX009 (ip), vehicle: Klucel (hydroxypropylcellulose) (HPC)
[11] = dose: 200.0 mg/kg/injection, schedule: Q01DX009 (ip), vehicle: Klucel (hydroxypropylcellulose) (HPC)
[12] = dose: 25.0 mg/kg/injection, schedule: Q01DX009 (ip), vehicle: saline

`CCC(C)C1NC(=O)C(NC(=O)c2c3[nH]c4c(C(=O)NC5C(=O)NC(C(C)CC)C(=O)N6CCCC6C(=O)N(C)CC(=O)N(C)C(C(C)C)C(=O)OC5C)ccc(C)c4oc-3c(C)c(=O)c2=O)C(C)OC(=O)C(C(C)C)N(C)C(=O)CN(C)C(=O)C2CCCN2C1=O` (stereo not drawn) was tested, and the T/C (dose: 0.05 mg/kg/injection, schedule: Q01DX009 (ip), vehicle: water) was 98 % of control, the T/C (dose: 0.1 mg/kg/injection, schedule: Q01DX009 (ip), vehicle: water) was 102 % of control and the T/C (dose: 0.2 mg/kg/injection, schedule: Q01DX009 (ip), vehicle: water) was 97 % of control. For the same compound, the T/C (dose: 0.4 mg/kg/injection, schedule: Q01DX009 (ip), vehicle: water) was 103 % of control, the T/C (dose: 0.8 mg/kg/injection, schedule: Q01DX009 (ip), vehicle: water) was 100 % of control and the T/C (dose: 1.6 mg/kg/injection, schedule: Q01DX009 (ip), vehicle: water) was 101 % of control.
With `c1ccc(C[P+](c2ccccc2)(c2ccccc2)c2ccccc2)cc1` the T/C (dose: 2.5 mg/kg/injection, schedule: Q01DX009 (ip), vehicle: other) was 92 % of control, the T/C (dose: 5.0 mg/kg/injection, schedule: Q01DX009 (ip), vehicle: other) was 94 % of control and the T/C (dose: 10.0 mg/kg/injection, schedule: Q01DX009 (ip), vehicle: other) was 94 % of control. For the same compound, the T/C (dose: 20.0 mg/kg/injection, schedule: Q01DX009 (ip), vehicle: other) was 89 % of control.
`Cc1c(CNc2ccc(C(=O)NC(CC(=O)O)CC(=O)O)cc2)ccc2nc(N)nc(N)c12` was tested, and the T/C (dose: 0.05 mg/kg/injection, schedule: Q01DX009 (ip), vehicle: saline) was 111 % of control, the T/C (dose: 0.1 mg/kg/injection, schedule: Q01DX009 (ip), vehicle: saline) was 111 % of control and the T/C (dose: 0.12 mg/kg/injection, schedule: Q01DX009 (ip), vehicle: saline with Tween-80) was 102 % of control. The T/C (dose: 0.2 mg/kg/injection, schedule: Q01DX009 (ip), vehicle: saline) was 116 % of control, the T/C (dose: 0.25 mg/kg/injection, schedule: Q01DX009 (ip), vehicle: saline with Tween-80) was 91 % of control and the T/C (dose: 0.37 mg/kg/injection, schedule: Q01DX009 (ip), vehicle: saline) was 100 % of control.
`CC(=O)C(Cl)C(=O)c1c(C)[nH]n(-c2ccccc2)c1=O` (stereo not drawn) was tested, and the T/C [1] was 108 % of control and the T/C [2] was 98 % of control.
With `O=c1cc(CCl)[nH]nc1CCl` the T/C (dose: 1.5 mg/kg/injection, schedule: Q01DX009 (ip), vehicle: saline with Tween-80) was 107 % of control, the T/C (dose: 3.0 mg/kg/injection, schedule: Q01DX009 (ip), vehicle: saline with Tween-80) was 116 % of control and the T/C (dose: 3.12 mg/kg/injection, schedule: Q01DX009 (ip), vehicle: saline with Tween-80) was 123 % of control. The T/C [3] was 124 % of control.
With `CCC(Br)C(=O)Nc1c(C)cccc1Cl` (stereo not drawn) the T/C [1] was 106 % of control, the T/C [2] was 93 % of control and the T/C [4] was 93 % of control.
With `CCOC(=O)C1(C(=O)OCC)COC(=O)C1` the T/C (dose: 16.0 mg/kg/injection, schedule: Q01DX009 (ip), vehicle: saline with Tween-80) was 101 % of control, the T/C (dose: 32.0 mg/kg/injection, schedule: Q01DX009 (ip), vehicle: saline with Tween-80) was 101 % of control and the T/C (dose: 64.0 mg/kg/injection, schedule: Q01DX009 (ip), vehicle: saline with Tween-80) was 101 % of control. The T/C (dose: 128.0 mg/kg/injection, schedule: Q01DX009 (ip), vehicle: saline with Tween-80) was 104 % of control and the T/C (dose: 256.0 mg/kg/injection, schedule: Q01DX009 (ip), vehicle: saline with Tween-80) was 97 % of control.
For `CCCC(=O)Oc1ccc(/C=N/NC(N)=S)nc1`, the T/C [3] was 105 % of control, the T/C (dose: 25.0 mg/kg/injection, schedule: Q01DX009 (ip), vehicle: saline with Tween-80) was 105 % of control and the T/C (dose: 50.0 mg/kg/injection, schedule: Q01DX009 (ip), vehicle: saline with Tween-80) was 106 % of control and 112 % of control. For the same compound, the T/C [5] was 116 % of control and the T/C [6] was 110 % of control.
`C/C(=C\c1ccccc1)C(=O)c1ccc(-c2ccccc2)cc1` was tested, and the T/C (dose: 100.0 mg/kg/injection, schedule: Q04DX003 (ip), vehicle: Klucel (hydroxypropylcellulose) (HPC)) was 103 % of control, the T/C (dose: 200.0 mg/kg/injection, schedule: Q04DX003 (ip), vehicle: Klucel (hydroxypropylcellulose) (HPC)) was 95 % of control and the T/C (dose: 400.0 mg/kg/injection, schedule: Q04DX003 (ip), vehicle: Klucel (hydroxypropylcellulose) (HPC)) was 106 % of control.
With `NC(Cc1ccc(N(CCCl)CCCl)cc1)C(=O)O` (stereo not drawn) the T/C (dose: 2.0 mg/kg/injection, schedule: Q01DX009 (ip), vehicle: saline) was 188 % of control, the T/C (dose: 2.0 mg/kg/injection, schedule: Q01DX009 (ip), vehicle: water) was 118 % of control and the T/C (dose: 4.0 mg/kg/injection, schedule: Q01DX009 (ip), vehicle: water) was 272 % of control. The T/C (dose: 8.0 mg/kg/injection, schedule: Q01DX009 (ip), vehicle: water) was 172 % of control.
For `CC1=CCC2(C)C(=O)CC3(C)C(CCC4C5(C)CCC(=O)C(C)(C)C5CCC43C)C2C1C` (stereo not drawn), the T/C (dose: 1.75 mg/kg/injection, schedule: Q01DX008 (ip), vehicle: saline) was 100 % of control, the T/C (dose: 3.5 mg/kg/injection, schedule: Q01DX008 (ip), vehicle: saline) was 100 % of control and the T/C (dose: 7.0 mg/kg/injection, schedule: Q01DX008 (ip), vehicle: saline) was 94 % of control. For the same compound, the T/C (dose: 14.0 mg/kg/injection, schedule: Q01DX008 (ip), vehicle: saline) was 99 % of control.
With `CC12CCC(C1)C(C)(C)C2NCCCN1C(=O)c2ccc3c4c(ccc(c24)C1=O)C(=O)N(CCCNC1C2(C)CCC(C2)C1(C)C)C3=O` (stereo not drawn) the T/C [7] was 100 % of control, the T/C [8] was 96 % of control and the T/C [1] was 106 % of control and 109 % of control.
In the case of `O=C1CN=C(c2ccccc2)c2cc([N+](=O)[O-])ccc2N1`, the T/C (dose: 0.02 mg/kg/injection, schedule: Q01DX009 (ip), vehicle: Klucel (hydroxypropylcellulose) (HPC)) was 100 % of control, the T/C (dose: 0.04 mg/kg/injection, schedule: Q01DX009 (ip), vehicle: Klucel (hydroxypropylcellulose) (HPC)) was 103 % of control and the T/C (dose: 0.09 mg/kg/injection, schedule: Q01DX009 (ip), vehicle: Klucel (hydroxypropylcellulose) (HPC)) was 105 % of control. For the same compound, the T/C (dose: 0.19 mg/kg/injection, schedule: Q01DX009 (ip), vehicle: Klucel (hydroxypropylcellulose) (HPC)) was 101 % of control, the T/C (dose: 0.39 mg/kg/injection, schedule: Q01DX009 (ip), vehicle: Klucel (hydroxypropylcellulose) (HPC)) was 98 % of control and the T/C [9] was 86 % of control. For the same compound, the T/C [8] was 90 % of control, the T/C [2] was 99 % of control and the T/C [4] was 86 % of control. For the same compound, the T/C [10] was 86 % of control.
In the case of `C[C@@H]1C[C@H]2[C@@H]3CCC4=CC(=O)C=C[C@]4(C)[C@@]3(F)[C@@H](O)C[C@]2(C)[C@@]1(O)C(=O)CO`, the T/C [9] was 114 % of control, the T/C [7] was 107 % of control and the T/C [8] was 114 % of control. For the same compound, the T/C [1] was 107 % of control and the T/C [2] was 115 % of control.
In the case of `CCOC(=O)c1ccc(NC(=O)Nc2ccc(Cl)cc2)cc1`, the T/C [4] was 106 % of control, the T/C [11] was 106 % of control and the T/C [10] was 100 % of control.
With `CCN(CC)C(=S)SC(=S)N(CC)CC` the T/C [5] was 96 % of control, the T/C [6] was 103 % of control and the T/C (dose: 400.0 mg/kg/injection, schedule: Q01DX009 (ip), vehicle: saline with Tween-80) was 93 % of control.
In the case of `CC(CCc1ccccc1)NN` (stereo not drawn), the T/C (dose: 3.12 mg/kg/injection, schedule: Q01DX009 (ip), vehicle: saline) was 122 % of control, the T/C (dose: 6.25 mg/kg/injection, schedule: Q01DX009 (ip), vehicle: saline) was 112 % of control and 116 % of control and the T/C (dose: 12.5 mg/kg/injection, schedule: Q01DX009 (ip), vehicle: saline) was 113 % of control. For the same compound, the T/C [12] was 103 % of control and 112 % of control.
`Cc1ccc(CNc2cccc([N+](=O)[O-])c2)cc1` was tested, and the T/C [4] was 100 % of control and the T/C [11] was 97 % of control.
`C1CCN(CCC2CCNCC2)CC1` was tested, and the T/C [12] was 109 % of control and the T/C (dose: 50.0 mg/kg/injection, schedule: Q01DX009 (ip), vehicle: saline) was 90 % of control.
